Here are results for 6 compounds from patent EP1507010B1, “Control of the gene expression in eukaryotic cells” (priority 1999, dated 2001).

Data set [1] addresses T1, HA-VP16-TraR fusion (TraR from Agrobacterium strain A348 fused to VP16 activation domain; pMON53030) (UniProt P06492+P33905).
T1 construct: PCR fragments containing open reading frames are cloned into an expression construct; expressed in transfected cells; host or cells: carrot protoplasts from cell suspension culture, transient transfection
Kind of data set: Transient GUS reporter assay in transfected carrot protoplasts with VP16-TraR effector. The class given is cell-based, Agrobacterium tumefaciens. Details: + inducer (average of the GUS activities) / + inducer (GUS activity, average) / GUS activity, average (with AHL or analog at the stated concentration) / GUS activity, average (+ inducer) / GUS activity, average: unit not given here. The note with it: for GUS activity, average ('- inducer'): 1 µM of the AHL or analog; for GUS activity, average ('- inducer') / GUS activity, average (with AHL or analog at the stated concentration) / GUS activity, average (+ inducer) / GUS activity, average / fold +/-: reporter TraA8(4X)-GUS + 35S-VP16-TraR; for GUS activity, average (with AHL or analog at the stated concentration): 5 µM of the AHL or analog; for GUS activity, average: 25 µM of the AHL or analog. The source says: Carrot protoplasts were transfected with the TraA8 (4X)- GUS reporter construct with the 35S-VP16-TraR activator gene and tested for GUS induction by application of wild type AHL and the various AHL analogs described in Example 8. Table 8: Transient assays in carrot protoplasts of AHL analogs
(A reporter such as luciferase makes a cellular process visible.)

The subject of data set [2] is HA-VP16-EsaR fusion (pMON53005). Nature of the data set: Transient GUS reporter assay in transfected carrot protoplasts with VP16-EsaR effector. The class given is cell-based, Erwinia sterwartii. Particulars: reporter esaR box (4X)-GUS pMON53009; dose-dependent, concentration not given; 36 hours.
Setting [3] is: ratio of GUS activity at 12.5 µM to that at 5 µM.
Where [4] appears, read: ratio of GUS activity at […] to that at 1 µM.
Setting [5] is: ratio of GUS activity at 75 µM to that at 25 µM.

For the compound `CCCC(=O)CC(=O)N[C@H]1CCOC1=O` [C6, N-(3-oxohexanoyl)-L-homoserine lactone], the Fold induction in data set [1] (25 [i M] inducer (OOHL, or C6) vs no inducer, reporter pMON53031, pMON53030 60 µg, 36 hrs, 25 µM) was 1.6 fold. In data set [1] (25 [i M] inducer (OOHL, or C6), reporter pMON53031, pMON53030 60 µg, 36 hrs), the “+ inducer (average of the GUS activities)” value amounted to 568.5. Moreover, in data set [2], the “activation by the VP16-EsaR construct diminished by addition of the inducer” value was “up to 3.3 fold”.

As for `CCCCCC(=O)C(CC)C(=O)N[C@@H](CCO)C(=O)O` (stereo partly drawn) [compound 19, N-(α-Ethyl-b-ketooctanoyl)-(S)-homoserine], the “GUS activity, average ('- inducer')” value in data set [1] is recorded as 469.6. In addition, the “GUS activity, average (with AHL or analog at the stated concentration)” value in data set [1] is listed as 2239.4. The results for the “GUS activity, average (+ inducer)” value in data set [1] (12.5 µM of the AHL or analog) and in data set [1] (78 µM as printed) were 5377.3 and 7569.1, respectively. In addition, the “GUS activity, average” value in data set [1] is reported as 6732.3. Also, the “fold +/-” value is recorded as 2.4 fold in data set [1] (setting [3]), 1.1 fold in data set [1] (ratio of GUS activity at 78 µM to that at 25 µM) and 2.8 fold in data set [1] (setting [4]).

`CCCCCCC(C(C)=O)C(=O)N[C@@H](CCO)C(=O)O` (stereo partly drawn) [compound 26, N-(α-Hexyl-b-ketobutanoyl)-(S)-homoserine]: the “GUS activity, average ('- inducer')” value in data set [1] is listed as 184.7. For the same compound, the “GUS activity, average (with AHL or analog at the stated concentration)” value in data set [1] is on record as 387.6. The results for the “GUS activity, average (+ inducer)” value in data set [1] (12.5 µM of the AHL or analog) and in data set [1] (75 µM of the AHL or analog) were 1812.5 and 2879.9, respectively. In addition, the “GUS activity, average” value in data set [1] came to 1515.3. In addition, the “fold +/-” value stood at 4.7 fold in data set [1] (setting [3]), 1.9 fold in data set [1] (setting [5]) and 1.2 fold in data set [1] (setting [4]).

Consider `CCCCCC(=O)C(CCCC)C(=O)N[C@@H](CCO)C(=O)O` (stereo partly drawn) [compound 25, N-(α-Butyl-b-ketooctanoyl)-(S)-homoserine], for which the “GUS activity, average ('- inducer')” value in data set [1] came out at 256.9. Besides, the “GUS activity, average (with AHL or analog at the stated concentration)” value in data set [1] came out at 309.3. Moreover, the figures for the “GUS activity, average (+ inducer)” value in data set [1] (12.5 µM of the AHL or analog) and in data set [1] (75 µM of the AHL or analog) were 284.7 and 252.9, respectively. Also, the “GUS activity, average” value in data set [1] was 224.2. In addition, the “fold +/-” value in data set [1] (setting [3]) is listed as 0.9 fold; in data set [1] (setting [5]) it was 1.1 fold; in data set [1] (setting [4]) it was 2.1 fold.

With `CCCCCC(=O)C(C)C(=O)N[C@@H](CCO)C(=O)O` (stereo partly drawn) [compound 7, N-(α-Methyl-b-ketooctanoyl)-(S)-homoserine], the “GUS activity, average ('- inducer')” value in data set [1] is listed as 180.2. Further, the “GUS activity, average (with AHL or analog at the stated concentration)” value in data set [1] worked out at 1071.5. For the same compound, the “GUS activity, average (+ inducer)” value in data set [1] (12.5 µM of the AHL or analog) came out at 2746.0; in data set [1] (75 µM of the AHL or analog), 3209.7. The “GUS activity, average” value in data set [1] was 2486.3. For the same compound, the “fold +/-” value in data set [1] (setting [3]) is listed as 2.6 fold; in data set [1] (setting [5]), 1.3 fold; in data set [1] (setting [4]) it was 1.8 fold.

Take `CCCCCC(=O)C(C)(C)C(=O)N[C@@H](CCO)C(=O)O` [compound 16, N-(α,α-Dimethyl-b-ketooctanoyl)-(S)-homoserine]: the “GUS activity, average ('- inducer')” value in data set [1] turned out to be 111.8. Further, in data set [1], the “GUS activity, average (with AHL or analog at the stated concentration)” value came out at 229.7. Moreover, the figures for the “GUS activity, average (+ inducer)” value in data set [1] (12.5 µM of the AHL or analog) and in data set [1] (75 µM of the AHL or analog) were 509.8 and 4719.8, respectively. Further, the “GUS activity, average” value in data set [1] turned out to be 1426.6. For the same compound, the entries for the “fold +/-” value in data set [1] (setting [3]), in data set [1] (setting [5]) and in data set [1] (setting [4]) were 2.2 fold, 3.3 fold and 2.8 fold, respectively.
